In patent US8889699B2, “5-fluorouracil derivative” (Delta-Fly Pharma, Inc., priority 2009, dated 2014):

Key:
[1] = test system: Human colon cancer strain (KM12C)
Experimental: (§1) The resulting product was stirred with a stirrer at room temperature for about 10 minutes. […] The proliferated strain was extracted, cut into about 2 to 3 mm square pieces with scissors in physiological saline, and subcutaneously inoculated to the right axillary region of rats of the same strain, 5 to 6 weeks of age, using a transplantation needle. […] Then, drug administration was initiated from the next day. Each of the test liquids shown in (a) to (b) above was administered orally to the rats in each of the test drug groups using a sonde for oral administration at a dose of 0.1 ml per 10 g body weight once a day for 14 continuous days. In the same manner as the above, the cancer-bearing rats in the control group were subjected to oral administration of only 0.5% HPMC liquid for 14 continuous days.
(§2) The tumor volume of each rat in each group before the initiation of the treatment, on day 3, day 5, day 8 (1 week after), day 11, and day 15 (2 weeks after), i.e., after termination of the administration, was calculated using Equation 1 below, and respective relative tumor volume (RTV) relative to the tumor volume at the time of initiation of the treatment was calculated. In relation to the antitumor effect, the average value of the tumor proliferation inhibition ratio (IR; %) was calculated from the average tumor volume of each treatment group on day 15 (after termination of the treatment) relative to that of the control group on day 15, using Equation 2. […] Along therewith, a weight change ratio was calculated from the body weight of the rats at the time of the termination of the drug administration relative to the body weight of the rats at the time of the initiation of the administration, using Equation 3. […] A coagulation inhibitor was added to each of the collected blood samples, and the white blood cell count, red blood cell count, and platelet count were measured using a hemocytometer.

[2] = test system: human gastric cancer strain (SC-2)
Experimental: as §1, §2

[3] = oral, 14 days, Compound I-11 71 to 88 mg/kg/day, S-1 20 to 22.5 mg/kg/day

Structure (SMILES)	antitumor effect ([1]; oral, 14 days, Compound I-10 51 to 77 mg/kg/day, S-1 15 to 22.5 mg/kg/day, FIG. 2-1)	diarrhea ([1]; rat, in vivo)	platelet count relative to that of the control group ([1]; rat, in vivo)	weight loss ([1]; rat, in vivo)	white blood cell count, reduced to % of that of the control group ([2]; 71 to 88 mg/kg/day orally for 2 weeks, FIG. 1-2)	platelet count relative to that of the control group ([2]; oral, 2 weeks, Compound I-11 71 to 88 mg/kg/day, S-1 20 to 22.5 mg/kg/day, FIG. 1-2)	toxic death ([2]; oral, 14 days, Compound I-11 71 to 88 mg/kg/day)	diarrhea [2, 3]	weight loss [2, 3]	antitumor effect ([2]; oral, 14 days, Compound I-11 71 to 88 mg/kg/day, S-1 20 to 22.5 mg/kg/day, FIG. 1-1)
CCOCn1cc(F)c(=O)n(C(=O)c2cccc(C(=O)Oc3cc(OC(=O)c4cc(OC(C)=O)nc(OC(C)=O)c4)c(Cl)cn3)c2)c1=O [Compound I-10, 3-{3-[4-(2,6-diacetyloxyisonicotinoyloxy)-5-chloro-2-pyridyloxycarbonyl]benzoyl}-1-ethoxymethyl-5-fluorouracil]	high antitumor effects in a dose-dependent manner	not observed	the same as that of the control group	not observed						
CCOCn1cc(F)c(=O)n(C(=O)c2cccc(C(=O)Oc3cc(OC(=O)c4cc(OC(=O)CC)nc(OC(=O)CC)c4)c(Cl)cn3)c2)c1=O [Compound I-11, 3-{3-[4-(2,6-dipropionyloxyisonicotinoyloxy)-5-chloro-2-pyridyloxycarbonyl]benzoyl}-1-ethoxymethyl-5-fluorouracil]					about 50%	almost the same as that of the control group	not observed	not observed	not observed	high antitumor effects in a dose-dependent manner
